Reference: US10681909B2, “Herbicidal triazoles” (FMC Corporation, priority 2014, dated 2020)

Columns and labels:
kochia = experiment: Test D postemergence; type: in vivo, Kochia scoparia; conditions: scale 0 to 100
Excerpt: (§1) Seeds of plant species selected from bluegrass (annual bluegrass, Poa annua), blackgrass (Alopecurus myosuroides), canarygrass (Phalaris minor), chickweed (common chickweed, Stellaria media), galium (catchweed bedstraw, Galium aparine), bromegrass, down (downy bromegrass, Bromus tectorum), Russian thistle (Salsola kali), field poppy (Papaver rhoeas), field violet (Viola arvensis), foxtail, green (green foxtail, Setaria viridis), deadnettle (henbit deadnettle, Lamium amplexicaule), ryegrass, Ital. (Italian ryegrass, Lolium multiflorum), kochia (Kochia scoparia), lambsquarters (Chenopodium album), oilseed rape (Brassica napus), pigweed (Amaranthus retroflexus), chamomile (scentless chamomile, Matricaria inodora), speedwell (bird's-eye speedwell, Veronica persica), barley, spring (spring barley, Hordeum vulgare), wheat, spring (spring wheat, Triticum aestivum), buckwheat, wild (wild buckwheat, Polygonum convolvulus), wild mustard (Sinapis arvensis), oat, wild (wild oat, Avena fatua), radish, wild (wild radish, Raphanus raphanistrum), […]), barley, winter (winter barley, Hordeum vulgare), and wheat, winter (winter wheat, Triticum aestivum) were planted into a silt loam soil and treated preemergence with test chemicals formulated in a non-phytotoxic solvent mixture which included a surfactant. At the same time, these species were planted in pots containing Sunshine Redi-Earth® planting medium comprising spaghnum peat moss, vermiculite, starter nutrients and dolomitic limestone and treated with postemergence applications of the test chemicals formulated in the same manner. Plants ranged in height from 2 to 18 cm (1- to 4-leaf stage). Treated plants and controls were maintained in a controlled growth environment for 14 to 21 d after which time all species were compared to controls and visually evaluated. […] A dash (-) response means no test result.

buckwheat, wild [1] = experiment: Test D postemergence; type: in vivo, Polygonum convolvulus; conditions: scale 0 to 100
Excerpt: as §1

bluegrass = experiment: Test D postemergence; type: in vivo, Poa annua; conditions: scale 0 to 100
Excerpt: as §1

field violet = experiment: Test D postemergence; type: in vivo, Viola arvensis; conditions: scale 0 to 100
Excerpt: as §1

oilseed rape [2] = experiment: Test D preemergence; type: in vivo, Brassica napus; conditions: for Plant response rating (0 to 100), Oilseed Rape: 16 g ai/ha, 0 is no effect, 100 is complete control; for Plant response rating: Oilseed Rape: scale 0 to 100
Excerpt: as §1

oilseed rape [3] = experiment: Test D postemergence; type: in vivo, Brassica napus; conditions: scale 0 to 100
Excerpt: as §1

buckwheat, wild [4] = experiment: Test D preemergence; type: in vivo, Polygonum convolvulus; conditions: for Plant response rating (0 to 100), Buckwheat, Wild: 16 g ai/ha, 0 is no effect, 100 is complete control; for Plant response rating: Buckwheat, Wild: scale 0 to 100
Excerpt: as §1

waterhemp = experiment: Test C preemergence; type: in vivo, Amaranthus rudis; conditions: for Waterhemp plant response rating (0 to 100): Preemergence, visual rating after 13 to 15 d; for Plant response rating (scale of 0 to 100 where 0 is no effect and 100 is complete control): Waterhemp, preemergence, 250 g ai/ha
Excerpt: (§2) Seeds of plant species selected from blackgrass (Alopecurus myosuroides), ryegrass, Italian (Italian ryegrass, Lolium multiflorum), wheat (winter wheat, Triticum aestivum), galium (catchweed bedstraw, Galium aparine), corn (Zea mays), crabgrass, large (large crabgrass, Digitaria sanguinalis), foxtail, giant, (giant foxtail, Setaria faberii), johnsongrass (Sorghum halepense), lambsquarters (Chenopodium album), morningglory (Ipomoea coccinea), nutsedge, yellow (yellow nutsedge, Cyperus esculentus), pigweed (Amaranthus retroflexus), ragweed (common ragweed, Ambrosia elatior), soybean (Glycine max), barnyardgrass (Echinochloa crus-galli), oilseed rape (Brassica napus), waterhemp (common waterhemp, Amaranthus rudis), and velvetleaf (Abutilon theophrasti) were planted into a blend of loam soil and sand and treated preemergence with test chemicals formulated in a non-phytotoxic solvent mixture which included a surfactant. At the same time, plants selected from these crop and weed species and also chickweed (common chickweed, Stellaria media), oat, wild (wild oat, Avena fatua), and kochia (Kochia scoparia), were planted in pots containing Sunshine Redi-Earth® planting medium comprising spaghnum peat moss, vermiculite, starter nutrients and dolomitic limestone and treated with postemergence applications of test chemicals formulated in the same manner. Plants ranged in height from 2 to 18 cm (1- to 4-leaf stage) for postemergence treatments. […] A dash (-) response means no test result.

pigweed = experiment: Test D preemergence; type: in vivo, Amaranthus retroflexus; conditions: for Plant response rating (0 to 100), Pigweed: 16 g ai/ha, 0 is no effect, 100 is complete control; for Plant response rating: Pigweed: scale 0 to 100
Excerpt: as §1

bromegrass, down = experiment: Test D postemergence; type: in vivo, Bromus tectorum; conditions: scale 0 to 100
Excerpt: as §1

blackgrass = experiment: Test C preemergence; type: in vivo, Alopecurus myosuroides; conditions: for Plant response rating (scale of 0 to 100 where 0 is no effect and 100 is complete control): Blackgrass, preemergence; for Blackgrass plant response rating (0 to 100): Preemergence, visual rating after 13 to 15 d
Excerpt: as §2

**Q.** `FC(F)(F)COc1nc(-c2ccc(Cl)cc2)nn1Cc1ccnc(C(F)(F)F)c1` [Compound 31] was tested. Which “Plant response rating: Kochia” value (kochia; 16 g ai/ha) did it give?
**A.** The value was 80.

**Q.** What about the “Plant response rating: Kochia” value (kochia; 31 g ai/ha) of the same compound?
**A.** The value was 85.

**Q.** What about the “Plant response rating: Kochia” value (kochia; 62 g ai/ha) of the same compound?
**A.** Its value is 90.

**Q.** And the “Plant response rating: Kochia” value (kochia; 125 g ai/ha)?
**A.** Its value is 95.

**Q.** What about the “Plant response rating: Buckwheat, Wild” value (buckwheat, wild [1]; 16 g ai/ha) of the same compound?
**A.** Its value is 65.

**Q.** What about the “Plant response rating: Buckwheat, Wild” value (buckwheat, wild [1]; 31 g ai/ha) of the same compound?
**A.** The value was 75.

**Q.** And the “Plant response rating: Buckwheat, Wild” value (buckwheat, wild [1]; 62 g ai/ha)?
**A.** Its value is 75.

**Q.** And the “Plant response rating: Buckwheat, Wild” value (buckwheat, wild [1]; 125 g ai/ha)?
**A.** The value was 75.

**Q.** And the “Plant response rating: Bluegrass” value (bluegrass; 16 g ai/ha)?
**A.** The value was 50.

**Q.** What about the “Plant response rating: Bluegrass” value (bluegrass; 31 g ai/ha) of the same compound?
**A.** Its value is 65.

**Q.** And the “Plant response rating: Bluegrass” value (bluegrass; 62 g ai/ha)?
**A.** The value was 75.

**Q.** What about the “Plant response rating: Bluegrass” value (bluegrass; 125 g ai/ha) of the same compound?
**A.** Its value is 85.

**Q.** And the “Plant response rating: Field Violet” value (field violet; 16 g ai/ha)?
**A.** The value was 100.

**Q.** And the “Plant response rating: Field Violet” value (field violet; 31 g ai/ha)?
**A.** The value was 100.

**Q.** And the “Plant response rating: Field Violet” value (field violet; 62 g ai/ha)?
**A.** Its value is 100.

**Q.** What about the “Plant response rating: Field Violet” value (field violet; 125 g ai/ha) of the same compound?
**A.** The value was 100.

**Q.** What about the “Plant response rating (0 to 100), Oilseed Rape” value (oilseed rape [2]) of the same compound?
**A.** Its value is 10.

**Q.** And the “Plant response rating: Oilseed Rape” value (oilseed rape [2]; 62 g ai/ha)?
**A.** The value was 35.

**Q.** And the “Plant response rating: Oilseed Rape” value (oilseed rape [2]; 125 g ai/ha)?
**A.** The value was 35.

**Q.** And the “Plant response rating: Oilseed Rape” value (oilseed rape [3]; 16 g ai/ha)?
**A.** The value was 80.

**Q.** And the “Plant response rating: Oilseed Rape” value (oilseed rape [3]; 31 g ai/ha)?
**A.** Its value is 85.

**Q.** And the “Plant response rating: Oilseed Rape” value (oilseed rape [3]; 62 g ai/ha)?
**A.** Its value is 90.

**Q.** And the “Plant response rating: Oilseed Rape” value (oilseed rape [3]; 125 g ai/ha)?
**A.** Its value is 100.

**Q.** What about the “Plant response rating (0 to 100), Buckwheat, Wild” value (buckwheat, wild [4]) of the same compound?
**A.** Its value is 65.

**Q.** And the “Plant response rating: Buckwheat, Wild” value (buckwheat, wild [4]; 31 g ai/ha)?
**A.** The value was 75.

**Q.** And the “Plant response rating: Buckwheat, Wild” value (buckwheat, wild [4]; 62 g ai/ha)?
**A.** Its value is 75.

**Q.** What about the “Plant response rating: Buckwheat, Wild” value (buckwheat, wild [4]; 125 g ai/ha) of the same compound?
**A.** The value was 75.

**Q.** What about the “Waterhemp plant response rating (0 to 100)” value (waterhemp; 31 g ai/ha) of the same compound?
**A.** The value was 100.

**Q.** What about the “Waterhemp plant response rating (0 to 100)” value (waterhemp; 62 g ai/ha) of the same compound?
**A.** Its value is 100.

**Q.** What about the “Plant response rating (scale of 0 to 100 where 0 is no effect and 100 is complete control)” value (waterhemp) of the same compound?
**A.** Its value is 100.

**Q.** What about the “Plant response rating (0 to 100), Pigweed” value (pigweed) of the same compound?
**A.** Its value is 100.

**Q.** What about the “Plant response rating: Pigweed” value (pigweed; 62 g ai/ha) of the same compound?
**A.** The value was 100.

**Q.** What about the “Plant response rating: Pigweed” value (pigweed; 125 g ai/ha) of the same compound?
**A.** Its value is 100.

**Q.** And the “Plant response rating: Bromegrass, Down” value (bromegrass, down; 16 g ai/ha)?
**A.** Its value is 25.

**Q.** What about the “Plant response rating: Bromegrass, Down” value (bromegrass, down; 31 g ai/ha) of the same compound?
**A.** The value was 45.

**Q.** And the “Plant response rating: Bromegrass, Down” value (bromegrass, down; 62 g ai/ha)?
**A.** Its value is 50.

**Q.** And the “Plant response rating: Bromegrass, Down” value (bromegrass, down; 125 g ai/ha)?
**A.** The value was 70.

**Q.** What about the “Plant response rating (scale of 0 to 100 where 0 is no effect and 100 is complete control)” value (blackgrass; 125 g ai/ha) of the same compound?
**A.** Its value is 90.

**Q.** What about the “Plant response rating (scale of 0 to 100 where 0 is no effect and 100 is complete control)” value (blackgrass; 250 g ai/ha) of the same compound?
**A.** Its value is 95.

**Q.** And the “Blackgrass plant response rating (0 to 100)” value (blackgrass; 31 g ai/ha)?
**A.** Its value is 80.

**Q.** And the “Blackgrass plant response rating (0 to 100)” value (blackgrass; 62 g ai/ha)?
**A.** Its value is 70.

**Q.** Which results are given for `CCOc1nc(-c2ccccc2)nn1Cc1ccnc(C(F)(F)F)c1` [Compound 27]?
**A.** Plant response rating: Kochia (kochia; 16 g ai/ha): 85; Plant response rating: Kochia (kochia; 31 g ai/ha): 95; Plant response rating: Kochia (kochia; 62 g ai/ha): 95; Plant response rating: Kochia (kochia; 125 g ai/ha): 100; Plant response rating: Buckwheat, Wild (buckwheat, wild [1]; 16 g ai/ha): 65; Plant response rating: Buckwheat, Wild (buckwheat, wild [1]; 31 g ai/ha): 80; Plant response rating: Buckwheat, Wild (buckwheat, wild [1]; 62 g ai/ha): 70; Plant response rating: Buckwheat, Wild (buckwheat, wild [1]; 125 g ai/ha): 85; Plant response rating: Bluegrass (bluegrass; 16 g ai/ha): 35; Plant response rating: Bluegrass (bluegrass; 31 g ai/ha): 60; Plant response rating: Bluegrass (bluegrass; 62 g ai/ha): 65; Plant response rating: Bluegrass (bluegrass; 125 g ai/ha): 70; Plant response rating: Field Violet (field violet; 16 g ai/ha): 70; Plant response rating: Field Violet (field violet; 31 g ai/ha): 75; Plant response rating: Field Violet (field violet; 62 g ai/ha): 80; Plant response rating: Field Violet (field violet; 125 g ai/ha): 80; Plant response rating (0 to 100), Oilseed Rape (oilseed rape [2]): 5; Plant response rating: Oilseed Rape (oilseed rape [2]; 62 g ai/ha): 60; Plant response rating: Oilseed Rape (oilseed rape [2]; 125 g ai/ha): 80; Plant response rating: Oilseed Rape (oilseed rape [3]; 16 g ai/ha): 80; Plant response rating: Oilseed Rape (oilseed rape [3]; 31 g ai/ha): 85; Plant response rating: Oilseed Rape (oilseed rape [3]; 62 g ai/ha): 90; Plant response rating: Oilseed Rape (oilseed rape [3]; 125 g ai/ha): 100; Plant response rating (0 to 100), Buckwheat, Wild (buckwheat, wild [4]): 65; Plant response rating: Buckwheat, Wild (buckwheat, wild [4]; 31 g ai/ha): 80; Plant response rating: Buckwheat, Wild (buckwheat, wild [4]; 62 g ai/ha): 70; Plant response rating: Buckwheat, Wild (buckwheat, wild [4]; 125 g ai/ha): 85; Waterhemp plant response rating (0 to 100) (waterhemp; 31 g ai/ha): 100; Waterhemp plant response rating (0 to 100) (waterhemp; 62 g ai/ha): 100; Plant response rating (scale of 0 to 100 where 0 is no effect and 100 is complete control) (waterhemp): 100; Plant response rating (0 to 100), Pigweed (pigweed): 100; Plant response rating: Pigweed (pigweed; 62 g ai/ha): 100; Plant response rating: Pigweed (pigweed; 125 g ai/ha): 100; Plant response rating: Bromegrass, Down (bromegrass, down; 16 g ai/ha): 25; Plant response rating: Bromegrass, Down (bromegrass, down; 31 g ai/ha): 30; Plant response rating: Bromegrass, Down (bromegrass, down; 62 g ai/ha): 50; Plant response rating: Bromegrass, Down (bromegrass, down; 125 g ai/ha): 65; Plant response rating (scale of 0 to 100 where 0 is no effect and 100 is complete control) (blackgrass; 125 g ai/ha): 50; Plant response rating (scale of 0 to 100 where 0 is no effect and 100 is complete control) (blackgrass; 250 g ai/ha): 90; Blackgrass plant response rating (0 to 100) (blackgrass; 31 g ai/ha): 5; Blackgrass plant response rating (0 to 100) (blackgrass; 62 g ai/ha): 5
